How the values were obtained:
[1] = test system: S100P in human pancreatic juice specimens; assay: Room temperature storage stability of S100P in human clinical pancreatic juice specimens versus freeze storage, S100P ELISA (Example 3); conditions: seven human clinical specimens; 25° C. for 16 hours; AEBSF 4 mM, PMSF 1 mM
Method: With a view to improving the storage performance of pancreatic proteins further, it was studied whether the storage stability of S100P was influenced by the combined use of the sulfonyl fluoride-containing sulfone-based compound and TLCK, that is, another […] compound. Seven human clinical specimens were used.
Described specifically, sample solutions were prepared as follows: (1) Sample Solution 1: AEBSF, obtained by adding AEBSF (final concentration: 4 mM) to the human clinical specimens. (2) Sample Solution 2: AEBSF+PMSF, obtained by adding AEBSF (final concentration: 4 mM) and PMSF (final concentration: 1 mM) to the human clinical specimens. (3) Sample Solution 3: AEBSF+PMSF+Aprotinin, obtained by adding AEBSF (final concentration: 4 mM), PMSF (final concentration: 1 mM) and Aprotinin (final concentration: 3 μM) to the human clinical specimens. […]
The concentration of S100P is plotted along the ordinate, while Sample Solutions 1 to 5 (“AEBSF”, “AEBSF+PMSF”, “AEBSF+PMSF+Aprotinin”, “AEBSF+PMSF+TPCK”, and “AEBSF+PMSF+TLCK” in the graph) of the human pancreatic juice specimens 1 to 7 are plotted along the abscissa. […] As a result, in the sample solutions after frozen storage, S100P was detected, though varying in amount, from all the human pancreatic juice specimens irrespective of the kind of the protease inhibitor added. […]

[2] = test system: S100P in human clinical pancreatic juice specimens; assay: Room temperature storage stability of added S100P standard preparation in human clinical pancreatic juice specimens, S100P ELISA (Example 2); conditions: 25 ng/mL S100P standard added; four human clinical pancreatic juice specimens; 25° C. for 16 hours; AEBSF 4 mM, PMSF 1 mM
Source text: While attention was paid to the sulfone-based compounds found to have a high inhibitory effect against digestive enzymes in pancreatic juice in Example 1, the effect of the various sulfone-based compounds on the room temperature stability of S100P (calcium-binding protein) known as a marker protein of pancreatic cancer was studied. This means that by using four human clinical pancreatic juice specimens, whether the concentration of S100P changed or not after addition of a S100P protein standard preparation was studied before and after room temperature storage.
Described specifically, sample solutions were prepared as follows: (1) Sample Solution 1: containing no inhibitor, obtained by mixing 25 ng/mL of an S100P (standard preparation) solution with the human clinical specimens, respectively. (2) Sample Solution 2: AEBSF, obtained by adding AEBSF (final concentration: 4 mM) to Sample Solution 1. […] Then, S100P was detected using CircuLex S100P ELISA Kit (product of Cyclex, Catalogue Number: CY-8060) from solutions obtained by carrying out 10-fold dilution of the sample solutions with a buffer attached to CircuLex S100P ELISA Kit, respectively. As a control, S100P was detected similarly from Sample Solution 1 immediately after preservation (that is, before room temperature storage). […]

[3] = test system: Pancreatin (activated pancreatic enzyme); assay: Protease activity of pancreatin solution (pseudo artificial pancreatic juice), EnzCheck Protease Assay Kit with fluorescently-labeled casein; type: biochemical, pig; conditions: final concentration within range recommended by manufacturers; 37° C. for 2 hours; Ex/Em=485/535 nm
Method: A protease inhibitor screen was performed to find an inhibitor targeting a serine protease and having a high inhibitory effect against pancreatic juice. The protease inhibitors used were aprotinin (product of Roche), leupeptin (product of Roche), PMSF (product of Roche), AEBSF (product of Roche), p-APMSF (product of SIGMA), camostat mesilate (Foipan: product of Wako Pure Chemical Industries), gabexate mesilate (FOY: product of Wako Pure Chemical Industries), TLCK (product of SIGMA), and TPCK (product of SIGMA). It is to be noted that TPCK is an amino acid chloromethyl ketone having inhibitory activity against chymotrypsin but having no inhibitory activity against trypsin.
“Pancreatin”, a digestive enzyme prepared from the pig pancreas in which a pancreatic enzyme was present in activated form was used as pseudo artificial pancreatic juice. After addition of protease inhibitors in an amount so that the final concentration thereof would fall within a concentration range recommended by the manufacturers of the inhibitors, the protease activity was measured. The protease activity was measured using EnzCheck Protease Assay Kits (product of Molecular Probes). Described specifically, fluorescently-labeled casein attached to a kit was added to a pancreatin solution containing each protease inhibitor. After incubation at 37° C. for 2 hours, the amount of fluorescence was measured at a fluorescence wavelength of Ex/Em=485/535 nm. As a control, the protease activity of a sample solution (containing no inhibitor) obtained by directly adding fluorescently-labeled casein to pancreatin was measured.
The amount of fluorescence plotted along the ordinate represents the amount of degraded casein and it was approximated as the value of protease activity. The protease inhibitors contained respectively in the pancreatin solutions and final concentrations thereof are plotted along the abscissa. […] These inhibitors are each a sulfonyl fluoride-containing sulfone-based compound.

[4] = test system: S100P in human pancreatic juice specimens 1 and 2; assay: Room temperature storage stability of added S100P standard preparation in human pancreatic juice specimens 1 and 2, S100P ELISA (Example 4); conditions: 25 ng/mL S100P standard added (exogenous), 25° C. for 16 hours, AEBSF 4 mM, PMSF 1 mM, TLCK 1 mM
Method: An effect of a protease inhibitor for storage stability of S100P in a pseudo artificial pancreatic juice and that for storage stability of S100P in a human clinical specimen were compared. As a S100P-containing pseudo artificial pancreatic juice, a solution obtained by adding S100P (standard preparation) to a pancreatin solution to give a concentration of 25 ng/mL was used.
More specifically, sample solutions were prepared as follows: (1) Sample Solution 1: containing no inhibitor, obtained by mixing 25 ng/mL of an S100P (standard preparation) solution with the two human clinical specimens (human pancreatic juice specimens 1 and 2) used in Example 3 and the pseudo artificial pancreatic juice. […]
The concentration of S100P is plotted along the ordinate, while Sample Solutions 1 to 4 using the human pancreatic juice specimens 1 and 2 and the S100P-containing pseudo artificial pancreatic juice (“Without inhibitor”, “AEBSF”, “AEBSF+PMSF”, and “AEBSF+PMSF+TLCK” in the graph) are plotted along the abscissa. […] As a result, in the sample solutions after freeze storage, S100P was detected from both the human pancreatic juice specimen and the pancreatin solution. On the other hand, with regard to the sample solutions after room temperature storage, no S100P was detected from the pancreatin solutions irrespective of the presence or absence or the kind of the protease inhibitor.

NCCc1ccc(S(=O)(=O)F)cc1 [AEBSF, 4-(2-aminoethyl)-benzenesulfonyl fluoride]
S100P detection amount after room temperature storage compared with freeze storage [1]: the detection amount was very small compared with that after freeze storage
S100P concentration after room temperature storage [2]: S100P was detected from any of the pancreatic juice specimens
inhibitory effect on protease activity (amount of fluorescence = degraded casein) of pancreatin solution [3]: markedly high inhibitory effect
detection amount of S100P after room temperature storage [4]: detection amount of S100P is greater

O=S(=O)(F)Cc1ccccc1 [PMSF, phenylmethylsulfonyl fluoride]
inhibitory effect on protease activity (amount of fluorescence = degraded casein) of pancreatin solution [3]: markedly high inhibitory effect

Cc1ccc(S(=O)(=O)N[C@@H](CCCCN)C(=O)CCl)cc1 [TLCK, N-a-tosyl-L-lysine chloromethyl ketone]
inhibitory effect on protease activity (amount of fluorescence = degraded casein) of pancreatin solution [3]: not effective inhibitors by themselves

Cl.N=C(N)c1ccc(CS(=O)(=O)F)cc1 [p-APMSF, p-amidinophenylmethanesulfonyl fluoride hydrochloride]
inhibitory effect on protease activity (amount of fluorescence = degraded casein) of pancreatin solution [3]: markedly high inhibitory effect

From US9376675B2, “Method for preserving components of pancreatic juice in a sample, and kit for preserving components of pancreatic juice in a sample” (priority 2012, dated 2016)
